Measurements from patent publication US20220289732A1, “HETEROCYCLIC WDR5 INHIBITORS AS ANTI-CANCER COMPOUNDS” (NOVARTIS AG, priority 2019, published 2022).

Legend:
[1] = target: wild type MLL1 four-member complex (MLL1-4C) (Homo sapiens, UniProt P61964); assay: MLL1 LC-MS assay (SAH production); format: biochemical; details: read-out: (b) MLL LCMS Peptide Val.v.1 Qualified AC50
In short: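 MLL1-4C (30 nM final) was preincubated 20 min with compound (3-fold dilutions, 8 or 12 points) and SAM in Tris-HCl pH 8.0 buffer. H3K4me0 peptide (histone H3[1-21]-biotin) was then added, giving final 2.5 μM SAM and 10 μM substrate, and reactions ran 120 min at rt. After TFA/d4-SAH quench, SAH was quantified by LC-MS/MS and IC50 fitted from control-normalised activity.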

WDR5 = WDR5 (Homo sapiens, UniProt P61964); assay: WDR5 HTRF binding assay; details: read-out: (a) WDR5 HTRF Pep Val v.1[Inhibitor/IC50]Qualified AC50
In short: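 6 nM WDR5 and 20 nM biotin-MLL1 WIN peptide (3762-3773) were incubated with compound (12-point, 3-fold dilutions) in pH 7.5 Hepes/NaCl/DTT buffer for 20 min at rt. Streptavidin-APC plus anti-His-Eu were then added for 1 hr, with HTRF read at 665/615. IC50 was fit from control-normalized activity; the counter assay used 15 nM biotin-PEG-His peptide.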

MV4-11 cells = assay: MV4-11 6-day cell growth CTG (CellTiter-Glo) assay; format: cell-based; details: Homo sapiens, MV4-11, 144 h, 6 days, read-out: (c) MLL/WDR5 cell proliferation assay//MLL/WDR5 proliferation MV4:11 Qualified AC50
In short: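 Exponentially growing MV4-11 AML cells (RPMI 1640, 10% FBS) seeded at 300 cells/well with 12-point 1:3 compound dilutions, top final concentration 50 μM. Viability read by CellTiter-Glo luminescence after 6 days at 37° C; % inhibition vs DMSO-only wells fitted to dose-response for IC50.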

Row | Structure (SMILES) | AC50 [1] | IC50 (WDR5) | AC50 (MV4-11 cells)
1 | CCOc1cc([C@H](C)N2CCc3c(cc(CCN(C)CC)cc3-c3cn(CC)nc3C)C2=O)ncc1C#N [Example 127, (S)-4-ethoxy-6-(1-(7-(2-(ethyl(methyl)amino)ethyl)-5-(1-ethyl-3-methyl-1H-pyrazol-4-yl)-1-oxo-3,4-dihydroisoquinolin-2(1H)-yl)ethyl)nicotinonitrile] | 10 to 1000 nM | < 10 nM | 10 to 1000 nM
2 | CCOc1cc([C@H](C)N2CCc3c(cc(CCN(C)CC)cc3-c3cc(C)cnc3C(F)F)C2=O)ncc1C#N [Example 128, (S)-6-(1-(5-(2-(difluoromethyl)-5-methylpyridin-3-yl)-7-(2-(ethyl(methyl)amino)ethyl)-1-oxo-3,4-dihydroisoquinolin-2(1H)-yl)ethyl)-4-ethoxynicotinonitrile] | 10 to 1000 nM | < 10 nM | 10 to 1000 nM
3 | CCOc1cc(CN2CCc3c(cc(CCN(C)CC)cc3-c3cn(C)nc3C)C2=O)ncc1C#N [Example 129, 6-((5-(1,3-dimethyl-1H-pyrazol-4-yl)-7-(2-(ethyl(methyl)amino)ethyl)-1-oxo-3,4-dihydroisoquinolin-2(1H)-yl)methyl)-4-ethoxynicotinonitrile] | 10 to 1000 nM | < 10 nM | 10 to 1000 nM
4 | CCOc1cc(CN2CCc3c(cc(CCN(C)CC)cc3-c3ccc(F)nc3C)C2=O)ncc1C#N [Example 130, 4-ethoxy-6-((7-(2-(ethyl(methyl)amino)ethyl)-5-(6-fluoro-2-methylpyridin-3-yl)-1-oxo-3,4-dihydroisoquinolin-2(1H)-yl)methyl)nicotinonitrile] | 10 to 1000 nM | < 10 nM | 10 to 1000 nM
5 | CCOc1cc([C@H](C)N2CCc3c(cc(CCN(C)CC)cc3-c3cn(C)c(=O)cc3C)C2=O)ncc1C#N [Example 131, (S)-6-(1-(5-(1,4-dimethyl-6-oxo-1,6-dihydropyridin-3-yl)-7-(2-(ethyl(methyl)amino)ethyl)-1-oxo-3,4-dihydroisoquinolin-2(1H)-yl)ethyl)-4 ethoxynicotinonitrile] | 10 to 1000 nM | < 10 nM | 10 to 1000 nM
6 | CCOc1cc(CN2CCc3c(cc(CCN(C)CC)cc3-c3ccc(F)nc3C)C2=O)ncc1F [Example 132, 2-((4-ethoxy-5-fluoropyridin-2-yl)methyl)-7-(2-(ethyl(methyl)amino)ethyl)-5-(6-fluoro-2-methylpyridin-3-yl)-3,4-dihydroisoquinolin-1(2H)-one] | 10 to 1000 nM | < 10 nM | 10 to 1000 nM
7 | CCOc1cc(CN2CCc3c(cc(CCN(C)CC)cc3-c3cc(C)ncc3Cl)C2=O)ncc1C#N [Example 133, 6-((5-(5-chloro-2-methylpyridin-4-yl)-7-(2-(ethyl(methyl)amino)ethyl)-1-oxo-3,4-dihydroisoquinolin-2(1H)-yl)methyl)-4-ethoxynicotinonitrile] | 10 to 1000 nM | < 10 nM | 10 to 1000 nM
8 | CCOc1cc([C@H](C)N2CCc3c(cc(CCN(C)CC)cc3-c3cn(C)nc3C)C2=O)ncc1C#N [Example 134, (S)-6-(1-(5-(1,3-dimethyl-1H-pyrazol-4-yl)-7-(2-(ethyl(methyl)amino)ethyl)-1-oxo-3,4-dihydroisoquinolin-2(1H)-yl)ethyl)-4-ethoxynicotinonitrile] | 10 to 1000 nM | < 10 nM | 10 to 1000 nM
9 | CCOc1cc(CN2CCc3c(cc(CCN(C)CC)cc3-c3cn(C)c(=O)cc3C)C2=O)ncc1C#N [Example 135, 6-((5-(1,4-dimethyl-6-oxo-1,6-dihydropyridin-3-yl)-7-(2-(ethyl(methyl)amino)ethyl)-1-oxo-3,4-dihydroisoquinolin-2(1H)-yl)methyl)-4-ethoxynicotinonitrile] | 10 to 1000 nM | < 10 nM | 10 to 1000 nM
10 | CCOc1cc(C(C)N2CCc3c(cc(CCN(C)CC)cc3-c3cc(OC)ncc3Cl)C2=O)ncc1C#N (stereo not drawn) [Example 136, 6-(1-(5-(5-chloro-2-methoxypyridin-4-yl)-7-(2-(ethyl(methyl)amino)ethyl)-1-oxo-3,4-dihydroisoquinolin-2(1H)-yl)ethyl)-4-ethoxynicotinonitrile] | 10 to 1000 nM | < 10 nM | 10 to 1000 nM
11 | CCN(C)CCc1cc2c(c(-c3ccc(F)nc3C)c1)CCN(Cc1cnc(F)c(OC)c1)C2=O [Example 137, 7-(2-(ethyl(methyl)amino)ethyl)-5-(6-fluoro-2-methylpyridin-3-yl)-2-((6-fluoro-5-methoxypyridin-3-yl)methyl)-3,4-dihydroisoquinolin-1(2H)-one] | 10 to 1000 nM | < 10 nM | 10 to 1000 nM
12 | CCOc1cc([C@H](C)N2CCc3c(cc(CCN(C)CC)cc3-c3cc(N)cnc3C(F)(F)F)C2=O)ncc1C#N [Example 138, (S)-6-(1-(5-(5-amino-2-(trifluoromethyl)pyridin-3-yl)-7-(2-(ethyl(methyl)amino)ethyl)-1-oxo-3,4-dihydroisoquinolin-2(1H)-yl)ethyl)-4-ethoxynicotinonitrile] | 10 to 1000 nM | < 10 nM | 10 to 1000 nM
13 | CCOc1cc([C@H](C)N2CCc3c(cc(CCN(C)CC)cc3-c3cccnc3C)C2=O)ncc1C#N [Example 139, (S)-4-ethoxy-6-(1-(7-(2-(ethyl(methyl)amino)ethyl)-5-(2-methylpyridin-3-yl)-1-oxo-3,4-dihydroisoquinolin-2(1H)-yl)ethyl)nicotinonitrile] | 10 to 1000 nM | < 10 nM | 10 to 1000 nM
14 | CCOc1cc(CN2CCc3c(cc(CCN(C)CC)cc3-c3cc(C)cnc3C)C2=O)ncc1C#N [Example 140, 6-((5-(2,5-dimethylpyridin-3-yl)-7-(2-(ethyl(methyl)amino)ethyl)-1-oxo-3,4-dihydroisoquinolin-2(1H)-yl)methyl)-4-ethoxynicotinonitrile] | 10 to 1000 nM | < 10 nM | 10 to 1000 nM
15 | CCOc1cc(C(C)N2CCc3c(cc(CCN(C)CC)cc3-c3ccnc(F)c3C)C2=O)ncc1C#N (stereo not drawn) [Example 141, 4-ethoxy-6-(1-(7-(2-(ethyl(methyl)amino)ethyl)-5-(2-fluoro-3-methylpyridin-4-yl)-1-oxo-3,4-dihydroisoquinolin-2(1H)-yl)ethyl)nicotinonitrile] | 10 to 1000 nM | 10 to 1000 nM | 10 to 1000 nM
16 | CCOc1cc([C@H](C)N2CCc3c(cc(CCN(C)CC)cc3-c3cc(C)ncc3F)C2=O)ncc1C#N [Example 142, (S)-4-ethoxy-6-(1-(7-(2-(ethyl(methyl)amino)ethyl)-5-(5-fluoro-2-methylpyridin-4-yl)-1-oxo-3,4-dihydroisoquinolin-2(1H)-yl)ethyl)nicotinonitrile] | 10 to 1000 nM | 10 to 1000 nM | 10 to 1000 nM
17 | CCOc1cc(C(C)N2CCc3c(cc(CCN(C)CC)cc3-c3cc(F)ncc3C)C2=O)ncc1C#N (stereo not drawn) [Example 143, 4-ethoxy-6-(1-(7-(2-(ethyl(methyl)amino)ethyl)-5-(2-fluoro-5-methylpyridin-4-yl)-1-oxo-3,4-dihydroisoquinolin-2(1H)-yl)ethyl)nicotinonitrile] | 10 to 1000 nM | 10 to 1000 nM | 10 to 1000 nM
18 | CCOc1cc(CN2CCc3c(cc(CCN(C)CC)cc3-c3cc(C)cnc3C(F)F)C2=O)ncc1C#N [Example 144, 6-((5-(2-(difluoromethyl)-5-methylpyridin-3-yl)-7-(2-(ethyl(methyl)amino)ethyl)-1-oxo-3,4-dihydroisoquinolin-2(1H)-yl)methyl)-4-ethoxynicotinonitrile] | 10 to 1000 nM | 10 to 1000 nM | 10 to 1000 nM
19 | CCOc1cc([C@H](C)N2CCc3c(cc(CCN(C)CC)cc3-c3cn(C)nc3C)C2=O)ncc1F [Example 145, (S)-5-(1,3-dimethyl-1H-pyrazol-4-yl)-2-(1-(4-ethoxy-5-fluoropyridin-2-yl)ethyl)-7-(2-(ethyl(methyl)amino)ethyl)-3,4-dihydroisoquinolin-1(2H)-one] | 10 to 1000 nM | 10 to 1000 nM | 10 to 1000 nM
20 | CCN(C)CCc1cc2c(c(-c3cn(C)nc3C(F)F)c1)CCN(C(C)c1cnc(F)c(OC)c1)C2=O (stereo not drawn) [Example 146, 5-(3-(difluoromethyl)-1-methyl-1H-pyrazol-4-yl)-7-(2-(ethyl(methyl)amino)ethyl)-2-(1-(6-fluoro-5-methoxypyridin-3-yl)ethyl)-3,4-dihydroisoquinolin-1(2H)-one] | 10 to 1000 nM | 10 to 1000 nM | 10 to 1000 nM
21 | CCOc1cc(C(C)N2CCc3c(cc(CCN(C)CC)cc3-c3ccc(Cl)nc3C)C2=O)ncc1C#N (stereo not drawn) [Example 147, 6-(1-(5-(6-chloro-2-methylpyridin-3-yl)-7-(2-(ethyl(methyl)amino)ethyl)-1-oxo-3,4-dihydroisoquinolin-2(1H)-yl)ethyl)-4-ethoxynicotinonitrile] | 10 to 1000 nM | 10 to 1000 nM | 10 to 1000 nM
22 | CCOc1cc(C(C)N2CCc3c(cc(CCN(C)CC)cc3-c3cn(C)nc3C(F)(F)F)C2=O)ncc1C#N (stereo not drawn) [Example 148, 4-ethoxy-6-(1-(7-(2-(ethyl(methyl)amino)ethyl)-5-(1-methyl-3-(trifluoromethyl)-1H-pyrazol-4-yl)-1-oxo-3,4-dihydroisoquinolin-2(1H)-yl)ethyl)nicotinonitrile] | 10 to 1000 nM | 10 to 1000 nM | 10 to 1000 nM
